Results published in the NIST ThermoML archive (doi:10.1021/acs.jced.7b00288).
± gives the expanded uncertainty stated by the source.

Legend:
[1] = Molar enthalpy of transition or fusion; details: Crystal; DSC
[2] = Crystal; DTA

Q: Which “Molar enthalpy of transition or fusion” value [1] does the source give for Cc1ccc(NC(=O)C(C)Cl)cc1 (configuration not stated) [2-chloro-N-(4-methylphenyl)propanamide] here?
A: 6.4 ± 0.206 kcal/mol

Q: What about the Normal melting temperature [2] of the same compound?
A: 121.68 ± 0.43 °C
